Experimental data published in the supplement of paper PMC10307832.

How the values were obtained:
Experiment in all cases: relative viability (nuclei count vs DMSO), 5 days (fraction); higher = more cells survive
NCI-H2023 = system: NCI-H2023
In short: (§1)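 Cells from lung cancer lines were seeded into 1536-well plates and, one day later, dosed by pin tool. Treatments were either a single drug or a fixed dose of an anchor drug with five library-drug doses (not always all listed) in √10 steps. After 5 days, nuclei were stained in a one-step fixation (final 0.05% Triton X-100, 1% formaldehyde, 1 ug/ml Hoechst) and counted on 4× images, and relative viability is the treated-to-vehicle nuclei ratio, as the median of duplicate plates.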

NCI-H2342 = system: NCI-H2342
In short: as §1

NCI-H460 = system: NCI-H460
In short: as §1

BEN = system: BEN
In short: as §1

LOU-NH91 = system: LOU-NH91
In short: as §1

NCI-H1563 = system: NCI-H1563
In short: as §1

NCI-H1395 = system: NCI-H1395
In short: as §1

PC-3 [JPC-3] = system: PC-3 [JPC-3]
In short: as §1

NCI-H2126 = system: NCI-H2126
In short: as §1

LXF-289 = system: LXF-289
In short: as §1

NCI-H2170 = system: NCI-H2170
In short: as §1

LU99A = system: LU99A
In short: as §1

NCI-H1666 = system: NCI-H1666
In short: as §1

NCI-H1915 = system: NCI-H1915
In short: as §1

NCI-H322M = system: NCI-H322M
In short: as §1

NCI-H23 = system: NCI-H23
In short: as §1

SK-LU-1 = system: SK-LU-1
In short: as §1

HARA = system: HARA
In short: as §1

A-427 = system: A-427
In short: as §1

NCI-H441 = system: NCI-H441
In short: as §1

NCI-H1793 = system: NCI-H1793
In short: as §1

LCLC-97TM1 = system: LCLC-97TM1
In short: as §1

SMILES: COCC1(CO)C(=O)C2CCN1CC2 (centres undefined) [PRIMA-1MET] + CCNC(=O)c1noc(-c2cc(C(C)C)c(O)cc2O)c1-c1ccc(CN2CCOCC2)cc1 [Luminespib] (partner 0.01 µM)
- relative viability (NCI-H2023; first compound 0.2 µM): 0.957
- relative viability (NCI-H2023; first compound 0.6325 µM): 0.85
- relative viability (NCI-H2023; first compound 2 µM): 0.745
- relative viability (NCI-H2023; first compound 6.325 µM): 0.685
- relative viability (NCI-H2023; first compound 20 µM): 0.642
- relative viability (NCI-H2342; first compound 0.2 µM): 0.722
- relative viability (NCI-H2342; first compound 0.6325 µM): 0.696
- relative viability (NCI-H2342; first compound 2 µM): 0.57
- relative viability (NCI-H2342; first compound 6.325 µM): 0.675
- relative viability (NCI-H2342; first compound 20 µM): 0.602
- relative viability (NCI-H460; first compound 0.2 µM): 0.0337
- relative viability (NCI-H460; first compound 0.6325 µM): 0.0272
- relative viability (NCI-H460; first compound 2 µM): 0.0258
- relative viability (NCI-H460; first compound 6.325 µM): 0.0312
- relative viability (NCI-H460; first compound 20 µM): 0.0174
- relative viability (BEN; first compound 0.2 µM): 0.35
- relative viability (BEN; first compound 0.6325 µM): 0.276
- relative viability (BEN; first compound 6.325 µM): 0.24
- relative viability (BEN; first compound 20 µM): 0.18
- relative viability (LOU-NH91; first compound 0.2 µM): 0.347
- relative viability (LOU-NH91; first compound 0.6325 µM): 0.353
- relative viability (LOU-NH91; first compound 2 µM): 0.365
- relative viability (LOU-NH91; first compound 6.325 µM): 0.42
- relative viability (LOU-NH91; first compound 20 µM): 0.265
- relative viability (NCI-H1563; first compound 0.2 µM): 0.595
- relative viability (NCI-H1563; first compound 0.6325 µM): 0.539
- relative viability (NCI-H1563; first compound 6.325 µM): 0.529
- relative viability (NCI-H1563; first compound 20 µM): 0.147
- relative viability (NCI-H1395; first compound 0.2 µM): 0.845
- relative viability (NCI-H1395; first compound 0.6325 µM): 0.676
- relative viability (NCI-H1395; first compound 2 µM): 0.677
- relative viability (NCI-H1395; first compound 6.325 µM): 0.603
- relative viability (NCI-H1395; first compound 20 µM): 0.406
- relative viability (PC-3 [JPC-3]; first compound 0.2 µM): 0.849
- relative viability (PC-3 [JPC-3]; first compound 0.6325 µM): 0.649
- relative viability (PC-3 [JPC-3]; first compound 2 µM): 0.679
- relative viability (PC-3 [JPC-3]; first compound 6.325 µM): 0.731
- relative viability (PC-3 [JPC-3]; first compound 20 µM): 0.546
- relative viability (NCI-H2126; first compound 0.2 µM): 0.963
- relative viability (NCI-H2126; first compound 0.6325 µM): 0.867
- relative viability (NCI-H2126; first compound 2 µM): 0.89
- relative viability (NCI-H2126; first compound 6.325 µM): 0.929
- relative viability (NCI-H2126; first compound 20 µM): 0.885
- relative viability (LXF-289; first compound 0.2 µM): 0.878
- relative viability (LXF-289; first compound 0.6325 µM): 0.673
- relative viability (LXF-289; first compound 2 µM): 0.74
- relative viability (LXF-289; first compound 6.325 µM): 0.712
- relative viability (LXF-289; first compound 20 µM): 0.624
- relative viability (NCI-H2170; first compound 0.2 µM): 1.06
- relative viability (NCI-H2170; first compound 0.6325 µM): 0.545
- relative viability (NCI-H2170; first compound 2 µM): 0.557
- relative viability (NCI-H2170; first compound 6.325 µM): 0.68
- relative viability (NCI-H2170; first compound 20 µM): 0.667
- relative viability (LU99A; first compound 0.2 µM): 0.216
- relative viability (LU99A; first compound 0.6325 µM): 0.233
- relative viability (LU99A; first compound 2 µM): 0.203
- relative viability (LU99A; first compound 6.325 µM): 0.221
- relative viability (LU99A; first compound 20 µM): 0.0965
- relative viability (NCI-H1666; first compound 0.2 µM): 1.02
- relative viability (NCI-H1666; first compound 0.6325 µM): 0.714
- relative viability (NCI-H1666; first compound 2 µM): 0.906
- relative viability (NCI-H1666; first compound 6.325 µM): 1.03
- relative viability (NCI-H1666; first compound 20 µM): 0.85
- relative viability (NCI-H1915; first compound 0.2 µM): 0.868
- relative viability (NCI-H1915; first compound 0.6325 µM): 0.506
- relative viability (NCI-H1915; first compound 6.325 µM): 0.853
- relative viability (NCI-H1915; first compound 20 µM): 0.697
- relative viability (NCI-H322M; first compound 0.2 µM): 0.974
- relative viability (NCI-H322M; first compound 0.6325 µM): 0.809
- relative viability (NCI-H322M; first compound 6.325 µM): 0.958
- relative viability (NCI-H322M; first compound 20 µM): 0.556
- relative viability (NCI-H23; first compound 0.2 µM): 0.24
- relative viability (NCI-H23; first compound 0.6325 µM): 0.234
- relative viability (NCI-H23; first compound 2 µM): 0.22
- relative viability (NCI-H23; first compound 6.325 µM): 0.209
- relative viability (NCI-H23; first compound 20 µM): 0.0464
- relative viability (SK-LU-1; first compound 0.2 µM): 0.203
- relative viability (SK-LU-1; first compound 0.6325 µM): 0.199
- relative viability (SK-LU-1; first compound 2 µM): 0.199
- relative viability (SK-LU-1; first compound 6.325 µM): 0.212
- relative viability (SK-LU-1; first compound 20 µM): 0.137
- relative viability (HARA; first compound 0.2 µM): 0.619
- relative viability (HARA; first compound 0.6325 µM): 0.0534
- relative viability (HARA; first compound 6.325 µM): 0.675
- relative viability (HARA; first compound 20 µM): 0.654
- relative viability (A-427; first compound 0.2 µM): 1.19
- relative viability (A-427; first compound 0.6325 µM): 0.717
- relative viability (A-427; first compound 2 µM): 0.714
- relative viability (A-427; first compound 6.325 µM): 0.763
- relative viability (A-427; first compound 20 µM): 0.58
- relative viability (NCI-H441; first compound 0.2 µM): 0.437
- relative viability (NCI-H441; first compound 0.6325 µM): 0.334
- relative viability (NCI-H441; first compound 2 µM): 0.276
- relative viability (NCI-H441; first compound 6.325 µM): 0.365
- relative viability (NCI-H441; first compound 20 µM): 0.277
- relative viability (NCI-H1793; first compound 0.2 µM): 0.138
- relative viability (NCI-H1793; first compound 0.6325 µM): 0.177
- relative viability (NCI-H1793; first compound 6.325 µM): 0.195
- relative viability (NCI-H1793; first compound 20 µM): 0.159
- relative viability (LCLC-97TM1; first compound 0.2 µM): 0.824
- relative viability (LCLC-97TM1; first compound 0.6325 µM): 0.531
- relative viability (LCLC-97TM1; first compound 2 µM): 0.877
- relative viability (LCLC-97TM1; first compound 6.325 µM): 0.841
- relative viability (LCLC-97TM1; first compound 20 µM): 0.674
